Here are results for 15 compounds from article PMC8286840, “Identifying SARS-CoV-2 antiviral compounds by screening for small molecule inhibitors of Nsp3 papain-like protease” (Biochemical Journal, 2021).

Data set [1] addresses T1, SARS-CoV-2 PLpro (nsp3 1564–1878) (Severe acute respiratory syndrome coronavirus 2, UniProt P0DTD1). Briefly: biochemical. The conditions noted are these: for Normalized activity High (3.75 µM) / Normalized activity Low (1.25µM): normalized to control without compound; for IC50: fluorescent-based assay; for Inhibition (%) 1.25 µM / Inhibition (%) 3.75 µM: 1.75 µM enzyme, 20 µM substrate. It is filed as biochemical.

In data set [2] the target is T2, SARS-CoV-2 PLpro (Severe acute respiratory syndrome coronavirus 2, UniProt P0DTD1). It is filed as biochemical. The conditions noted are these: 3.75 µM and 10 µM compound, 0.5 µM enzyme, 5 h RT.
The target of another data set is 3CLpro (nsp5) (Severe acute respiratory syndrome coronavirus 2, UniProt P0DTD1). The data set is classed as biochemical, SARS-CoV-2.
In a further data set the test system is SARS-CoV-2. Kind of data set: microbe, parasite or virus in culture. The conditions noted are these: for EC50: compound alone, read-out: EC50 viral proliferation. The data set is classed as cell-based.
Data set [3] addresses T1, SARS-CoV-2 PLpro (nsp3 1564–1878). Kind of data set: biochemical. Also noted: FRET-quenched peptide (Pro3) cleavage by PLpro, 10 min pre-incubation, slope over 20 min, normalised to no-compound control. The conditions noted are these: low concentration screen, read-out: % of control remaining.
The target is the same in data set [4]. Kind of data set: biochemical. More on the design: FRET-quenched peptide (Pro3) cleavage by PLpro, 10 min pre-incubation, slope over 20 min, normalised to no-compound control. The conditions noted are these: high concentration screen, read-out: % of control remaining.
The next data set concerns PLpro from SARS-CoV-1. The conditions noted are these: cited from earlier work.
The target of data set [5] is T2, SARS-CoV-2 PLpro. The data set is classed as biochemical. The conditions noted are these: 10 µM inhibitor, 50 nM PLpro, 1 µM substrate, 1 h 25°C.
The target in data set [6] is T2, SARS-CoV-2 PLpro. The data set is classed as biochemical. The conditions noted are these: 10 µM inhibitor, 50 nM PLpro, 1 µM substrate, 1 h 25°C. This is another data set of the same source.
Where [7] appears, read: screen, 1.25 µM compound, number after the slash is the control without compound.
Setting [8] is: screen, 3.75 µM compound, number after the slash is the control without compound.
The mark [9] stands for this setting: Severe acute respiratory syndrome coronavirus 2, Vero C1008, VERO E6 cells.

Several values for one entry are separate records, joined by “and”; a condition that tells them apart may be missing. Identical values can stand only once. Entries after “also recorded” stand apart in the source; their conditions may differ. Like-named read-outs stand apart in the source and are kept apart here. Where no end group is shown, it is not given here.

For `CC[C@@H]1Cc2cc(O)ccc2C2=C1c1ccc(O)cc1C[C@H]2CC` (relative stereo) [(R,R)-cis-Diethyl tetrahydro-2,8-chrysenediol], in [1] (screen, Table S1), the Z score is -14.155, the “Normalized activity High (3.75 µM)” value stood at 0 and the “Normalized activity Low (1.25µM)” value was 0.8033.
The corresponding values for `CCCn1c(=O)c2[nH]c(-c3ccc(S(=O)(=O)O)cc3)nc2n(CCC)c1=O` [1,3-Dipropyl-8-p-sulfophenylxanthine] are -14.155, 0 and 0.885.
Turning to `Cn1c(=O)c2[nH]c(-c3ccc(S(=O)(=O)O)cc3)nc2n(C)c1=O` [8-(p-Sulfophenyl)theophylline], in [1] (screen, Table S1), the Z score was -14.155, the “Normalized activity High (3.75 µM)” value came to 0 and the “Normalized activity Low (1.25µM)” value is on record as 0.9534.
For orientation: IC50 means the concentration needed to halve the response being measured. A high value points to weaker potency. On to `Cc1ccc(NC2=CC(=O)c3sc(C)nc3C2=O)cc1` [Cdk4 Inhibitor III], for which the half-maximal inhibitory concentration (IC50) in [1] was 0.39 µM and 0.393 µM. In data set [1] (screen hits, Table 1), the Z score is given as −5.34. Also, in data set [1] (screen, 1.25 µM compound), the “Inhibition (%) 1.25 µM” value came out at 19%. For the same compound, in data set [1] (setting [7]), the “slope value (of slope value/control) 1.25 µM” value turned out to be 367. In [1] (screen, 3.75 µM compound), the “Inhibition (%) 3.75 µM” value turned out to be 39%. The “slope value (of slope value/control) 3.75 µM” value in data set [1] (setting [8]) was 302. In addition, on SARS-CoV-2 PLpro [2], the “Inhibition of PLpro cleavage of the substrate (gel-based)” value is given as “show inhibition; also recorded: strongly inhibited”. The “Inhibition of 3CLpro activity (gel-based)” value at 3CLpro (nsp5) (3 and 10 µM compound) was “did not inhibit”. In addition, the EC50 in the data set on SARS-CoV-2 (VERO E6 cells) is 3.4 µM. In addition, the Cytotoxicity entry with VERO E6 cells is “cytotoxic in the low micromolar range”. The remaining activity at 1.25 µM in data set [3] (Well no.=2408) worked out at 81.1%. For the same compound, the remaining activity at 3.75 µM in data set [4] (Well no.=2408) came out at 61.4%.
For the compound `C[C@H]1COC2=C1C(=O)C(=O)c1c2ccc2c1CCCC2(C)C` [Cryptotanshinone, cryptotanshinone], the “Inhibition of PLpro cleavage of the substrate (gel-based)” value at SARS-CoV-2 PLpro [2] is given as “show inhibition; also recorded: inhibited cleavage, but only at the higher concentration”. The “Inhibition of 3CLpro activity (gel-based)” value on 3CLpro (nsp5) (3 and 10 µM compound) is given as “did not inhibit”. In addition, the EC50 in the data set on SARS-CoV-2 (setting [9]) came to 223 µM. Moreover, the “Concentration below which viral growth was not inhibited” value in the data set with SARS-CoV-2 (VERO E6 cells) is at least 200 µM. Also, the “Inhibition of SARS-CoV-1 PLpro” value in the data set on PLpro from SARS-CoV-1 is given as “better inhibitors of this enzyme than dihydrotanshinone I”. Moreover, the remaining activity at 1.25 µM in [3] (Well no.=3557) is 100%. Also, in data set [4] (Well no.=3557), the remaining activity at 3.75 µM was 103%.
With `O=C1c2ccccc2-c2nc3nnnn3nc21` [PDK1/Akt/Flt Dual Pathway Inhibitor], the half-inhibitory concentration (IC50) in data set [1] was found to be 0.265 µM; in data set [1] (listed as PDK/Akt/Flt dual pathway inhibitor), 0.26 µM. In addition, the Z score in [1] (screen hits, Table 1) is listed as −14.53; in [1] (screen, Table S1) it was -14.531. Moreover, the “Inhibition (%) 1.25 µM” value in data set [1] (screen, 1.25 µM compound) is listed as 89%. The “slope value (of slope value/control) 1.25 µM” value in [1] (setting [7]) stood at 50. Also, the “Inhibition (%) 3.75 µM” value in [1] (screen, 3.75 µM compound) was 100%. For the same compound, the “slope value (of slope value/control) 3.75 µM” value in data set [1] (setting [8]) turned out to be 0. Besides, the “Normalized activity High (3.75 µM)” value in data set [1] (screen, Table S1) is given as -0.02621. For the same compound, in [1] (screen, Table S1), the “Normalized activity Low (1.25µM)” value is given as 0.111. Further, the “Inhibition of PLpro cleavage of the substrate (gel-based)” value at SARS-CoV-2 PLpro [2] is on record as “show inhibition; also recorded: strongly inhibited”. Also, the remaining activity at 1.25 µM in [3] (Well no.=2319) was determined as 11.1%. In data set [4] (Well no.=2319), the remaining activity at 3.75 µM is -2.62%.
In data set [1] (screen hits, Table 1), `O=C(O)c1cccc(O)c1O` [Pyrocatechuic acid] gave a Z score of −6.846. Further, the “Inhibition (%) 1.25 µM” value in [1] (screen, 1.25 µM compound) was 0%. In addition, the “slope value (of slope value/control) 1.25 µM” value in data set [1] (setting [7]) worked out at 453. Moreover, in [1] (screen, 3.75 µM compound), the “Inhibition (%) 3.75 µM” value came out at 49%. The “slope value (of slope value/control) 3.75 µM” value in [1] (setting [8]) came out at 226. The “Inhibition of PLpro cleavage of the substrate (gel-based)” value at SARS-CoV-2 PLpro [2] is listed as “did not inhibit”. Moreover, the remaining activity at 1.25 µM in data set [3] (Well no.=6595) was 103%. In addition, in data set [4] (Well no.=6595), the remaining activity at 3.75 µM came out at 51%.
Take `Cc1coc2c1C(=O)C(=O)c1c-2ccc2c1CCCC2(C)C` [Tanshinone IIA, tanshinone IIA]: the “Inhibition of PLpro cleavage of the substrate (gel-based)” value at SARS-CoV-2 PLpro [2] was “inhibited cleavage, but only at the higher concentration”; at SARS-CoV-2 PLpro [2] (listed as tanshinone IIA), “show inhibition”. Further, the “Inhibition of 3CLpro activity (gel-based)” value on 3CLpro (nsp5) was “did not inhibit”. Moreover, the EC50 in the data set on SARS-CoV-2 (setting [9]) turned out to be 1150 µM. For the same compound, the “Inhibition of SARS-CoV-1 PLpro” value in the data set with PLpro from SARS-CoV-1 is “better inhibitors of this enzyme than dihydrotanshinone I”. In addition, the remaining activity at 1.25 µM in [3] (Well no.=3178) turned out to be 105%; in data set [3] (Well no.=4084), 99.4%. The remaining activity at 3.75 µM was found to be 105% in data set [4] (Well no.=3178) and 89.9% in data set [4] (Well no.=4084).
A word on the inhibition: it is the percentage by which the read-out fell short of the control. Take `C[C@H](CCC(=O)O)[C@H]1CC[C@H]2[C@@H]3[C@@H](O)C[C@@H]4C[C@H](O)CC[C@]4(C)[C@H]3CC[C@]12C` [Ursodiol]: in data set [1], the “slope value (of slope value/control) 1.25 µM” value is 26 (324/440) and the “slope value (of slope value/control) 3.75 µM” value is on record as 55 (187/420). Besides, the inhibition at 1.25 µM in data set [1] (read-out: Inhibition (%) 1.25 µM) stood at 26%. For the same compound, the inhibition at 3.75 µM in data set [1] (read-out: Inhibition (%) 3.75 µM) came to 55%. Moreover, the Z score in data set [1] (screen hits, Table 1) is −7.78. Further, the “Inhibition of PLpro cleavage of the substrate (gel-based)” value at SARS-CoV-2 PLpro [2] is reported as “did not inhibit”. The remaining activity at 1.25 µM in data set [3] (Well no.=8332) stood at 89.1%. Moreover, the remaining activity at 3.75 µM in [4] (Well no.=8332) came out at 90.6%.
Regarding `CC(C)=CC[C@@H](O)C1=CC(=O)c2c(O)ccc(O)c2C1=O` [shikonin], the “Inhibition of K48-linked Ub3 cleavage (DUB activity)” value on SARS-CoV-2 PLpro [5] is “did not inhibit and not”. Moreover, the “Inhibition of pro-ISG15 cleavage (deISGylating activity)” value at SARS-CoV-2 PLpro [6] is “did not inhibit”. The results for the remaining activity at 1.25 µM in data set [3] (Well no.=3172) and in data set [3] (Well no.=6398) were 86.4% and 96.8%, respectively. Moreover, the remaining activity at 3.75 µM in data set [4] (Well no.=3172) is 82.5%; in data set [4] (Well no.=6398), 92.6%.
Take `CCCCC/C=C\C/C=C\C/C=C\CCCCC(=O)O` [γ-Linolenic acid (18:3 n-6)]: the remaining activity at 1.25 µM in [3] (Well no.=4307) turned out to be 95%. For the same compound, the remaining activity at 3.75 µM in data set [4] (Well no.=4307) came to 100%.
Ac-LKKTETQ [TB500]: in data set [3] (Well no.=7646), the remaining activity at 1.25 µM was found to be 92.9%. Besides, in data set [4] (Well no.=7646), the remaining activity at 3.75 µM was 90.2%.
Turning to DRVYVHPF [Angiotensin II 5-valine], the remaining activity at 1.25 µM in [3] (Well no.=7899) was determined as 98.8%; in data set [3] (Well no.=7986) it was 90.3%. Moreover, the remaining activity at 3.75 µM was found to be 97.5% in [4] (Well no.=7899) and 89.7% in data set [4] (Well no.=7986).
As to KIPYIL [Neuromedin N], the remaining activity at 1.25 µM was found to be 91.8% in [3] (Well no.=8061) and 105% in data set [3] (Well no.=8502). Moreover, the remaining activity at 3.75 µM was found to be 90.1% in [4] (Well no.=8061) and 102% in [4] (Well no.=8502).
As to RPPGFSPFR [Bradykinin], the remaining activity at 1.25 µM in data set [3] (Well no.=8439) worked out at 98.7%. For the same compound, the remaining activity at 3.75 µM in data set [4] (Well no.=8439) was determined as 95.2%.
